In ChEMBL document CHEMBL5465560, “Selectivity Literature for EUbOPEN Chemogenomic Library” (2024) one finds % of control and % of inhibition data, which are given here for six compounds.

Molecules are shown by their SMILES.

Assay [1] concerns the target T1, Serine/threonine-protein kinase Sgk3 (Homo sapiens) (UniProt Q96BR1).
T1 sequence (whole entry): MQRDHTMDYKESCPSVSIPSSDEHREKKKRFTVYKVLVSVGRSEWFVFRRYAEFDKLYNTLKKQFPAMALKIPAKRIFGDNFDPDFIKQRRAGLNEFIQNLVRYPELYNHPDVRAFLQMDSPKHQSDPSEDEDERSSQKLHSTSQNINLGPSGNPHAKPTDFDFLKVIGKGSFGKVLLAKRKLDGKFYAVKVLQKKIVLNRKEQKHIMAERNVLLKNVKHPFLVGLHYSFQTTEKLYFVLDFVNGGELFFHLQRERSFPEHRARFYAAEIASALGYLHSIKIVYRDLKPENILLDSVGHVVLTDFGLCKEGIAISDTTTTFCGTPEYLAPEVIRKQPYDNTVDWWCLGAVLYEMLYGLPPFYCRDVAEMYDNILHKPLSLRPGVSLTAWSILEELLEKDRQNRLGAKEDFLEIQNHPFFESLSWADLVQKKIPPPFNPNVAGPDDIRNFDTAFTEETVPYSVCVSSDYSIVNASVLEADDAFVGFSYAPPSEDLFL
The experiment in a line: Selectivity interaction (ProQinase) EUB0000171b SGK3.

In assay [2] the target is T2, MAP kinase-activated protein kinase 5 (Homo sapiens) (UniProt Q8IW41).
T2 sequence (whole entry): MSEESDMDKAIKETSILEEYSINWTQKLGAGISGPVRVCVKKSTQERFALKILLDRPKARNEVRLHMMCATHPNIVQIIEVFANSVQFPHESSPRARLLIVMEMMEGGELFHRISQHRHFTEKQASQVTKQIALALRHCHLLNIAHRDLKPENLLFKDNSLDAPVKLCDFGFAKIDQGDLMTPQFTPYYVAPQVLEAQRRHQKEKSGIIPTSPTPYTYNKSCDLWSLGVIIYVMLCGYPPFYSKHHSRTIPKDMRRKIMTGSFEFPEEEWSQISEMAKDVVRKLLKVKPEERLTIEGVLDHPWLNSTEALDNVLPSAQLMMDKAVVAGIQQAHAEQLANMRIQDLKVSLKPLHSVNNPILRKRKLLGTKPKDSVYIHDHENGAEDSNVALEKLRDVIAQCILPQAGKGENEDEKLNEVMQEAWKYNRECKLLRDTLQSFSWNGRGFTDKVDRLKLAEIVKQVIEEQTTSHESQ
The experiment in a line: Selectivity interaction (KinaseProfiler screening (Millipore)) EUB0000601a MAPKAPK5. Particulars: at 3 µM.

In assay [3] the target is Casein kinase I isoform gamma-3 (Homo sapiens) (UniProt Q9Y6M4). The experiment in a line: Selectivity interaction (KinomeScan (DiscoverX)) EUB0000092b CSNK1G3. The conditions noted are these: at 10 µM.
Casein kinase I isoform gamma-3 (Homo sapiens), sequence (Q9Y6M4 whole entry, looked up, canonical isoform): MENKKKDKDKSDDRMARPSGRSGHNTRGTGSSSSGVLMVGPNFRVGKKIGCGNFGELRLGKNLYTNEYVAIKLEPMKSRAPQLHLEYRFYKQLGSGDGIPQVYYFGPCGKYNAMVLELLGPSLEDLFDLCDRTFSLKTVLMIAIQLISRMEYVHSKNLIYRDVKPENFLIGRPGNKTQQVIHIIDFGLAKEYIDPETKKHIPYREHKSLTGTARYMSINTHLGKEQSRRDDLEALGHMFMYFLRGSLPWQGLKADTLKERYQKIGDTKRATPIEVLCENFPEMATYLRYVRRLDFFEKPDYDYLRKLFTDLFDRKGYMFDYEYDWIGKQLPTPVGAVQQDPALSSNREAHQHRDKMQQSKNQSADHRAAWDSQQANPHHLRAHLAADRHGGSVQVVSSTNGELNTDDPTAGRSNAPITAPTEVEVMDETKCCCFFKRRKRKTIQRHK
In assay [4] the target is Myosin-IIIa (Homo sapiens) (UniProt Q8NEV4). The experiment in a line: Selectivity interaction (KinomeScan (DiscoverX)) EUB0000092b MYO3A. The conditions noted are these: at 10 µM.
Myosin-IIIa (Homo sapiens), sequence (Q8NEV4 whole entry): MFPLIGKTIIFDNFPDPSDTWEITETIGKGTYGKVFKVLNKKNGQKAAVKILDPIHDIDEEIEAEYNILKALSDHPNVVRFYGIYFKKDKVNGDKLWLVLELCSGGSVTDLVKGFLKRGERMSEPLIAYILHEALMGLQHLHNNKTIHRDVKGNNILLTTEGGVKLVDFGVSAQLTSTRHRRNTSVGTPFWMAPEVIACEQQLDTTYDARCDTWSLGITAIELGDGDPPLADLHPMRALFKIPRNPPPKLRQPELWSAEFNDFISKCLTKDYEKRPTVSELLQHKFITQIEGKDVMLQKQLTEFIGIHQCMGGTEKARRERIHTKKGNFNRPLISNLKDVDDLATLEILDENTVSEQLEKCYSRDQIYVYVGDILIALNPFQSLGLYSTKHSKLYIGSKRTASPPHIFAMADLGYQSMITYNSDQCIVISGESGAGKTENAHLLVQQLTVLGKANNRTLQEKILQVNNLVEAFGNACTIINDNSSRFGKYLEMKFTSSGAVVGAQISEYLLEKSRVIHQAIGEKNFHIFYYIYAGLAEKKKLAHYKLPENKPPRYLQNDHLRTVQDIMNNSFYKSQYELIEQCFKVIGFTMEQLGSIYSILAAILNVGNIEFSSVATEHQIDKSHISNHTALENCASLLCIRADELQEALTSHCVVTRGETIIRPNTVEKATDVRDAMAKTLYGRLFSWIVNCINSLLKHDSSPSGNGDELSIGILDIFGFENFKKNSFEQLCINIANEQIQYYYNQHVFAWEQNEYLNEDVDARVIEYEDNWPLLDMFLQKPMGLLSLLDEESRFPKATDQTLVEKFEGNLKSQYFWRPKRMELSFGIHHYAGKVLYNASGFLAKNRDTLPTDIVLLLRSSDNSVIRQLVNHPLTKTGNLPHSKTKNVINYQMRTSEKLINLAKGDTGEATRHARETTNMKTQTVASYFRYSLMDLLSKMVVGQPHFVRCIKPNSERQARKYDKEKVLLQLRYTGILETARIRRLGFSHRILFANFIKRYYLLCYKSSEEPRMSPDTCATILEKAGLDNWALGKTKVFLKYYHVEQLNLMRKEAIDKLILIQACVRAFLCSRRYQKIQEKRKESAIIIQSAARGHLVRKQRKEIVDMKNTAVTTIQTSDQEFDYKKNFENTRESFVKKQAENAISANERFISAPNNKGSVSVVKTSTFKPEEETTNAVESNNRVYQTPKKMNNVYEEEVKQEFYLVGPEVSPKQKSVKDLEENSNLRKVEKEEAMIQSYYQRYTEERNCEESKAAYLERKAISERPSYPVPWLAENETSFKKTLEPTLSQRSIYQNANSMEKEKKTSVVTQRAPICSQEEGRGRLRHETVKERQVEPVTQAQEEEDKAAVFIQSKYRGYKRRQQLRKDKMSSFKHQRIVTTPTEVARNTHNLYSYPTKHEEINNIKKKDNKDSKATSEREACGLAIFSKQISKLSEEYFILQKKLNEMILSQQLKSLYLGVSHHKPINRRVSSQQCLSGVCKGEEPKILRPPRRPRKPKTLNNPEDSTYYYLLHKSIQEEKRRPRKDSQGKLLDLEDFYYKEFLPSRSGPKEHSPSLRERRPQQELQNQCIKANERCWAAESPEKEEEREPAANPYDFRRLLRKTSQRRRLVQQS
Assay [5] concerns the target Serine/threonine-protein kinase pim-2 (Homo sapiens, UniProt Q9P1W9). The experiment in a line: Selectivity interaction (KinomeScan (DiscoverX)) EUB0001049a PIM2. Particulars: at 1 µM.
Assay [6] has as its target Gastrin/cholecystokinin type B receptor (Homo sapiens) (UniProt P32239). The experiment in a line: Selectivity interaction (Eurofins CEREP Diversity Profile (receptors and ion channels)) EUB0000279b CCKBR. Particulars: at 10 µM.
Assay [7] deals with T3, Serine/threonine-protein kinase DCLK2 (Homo sapiens) (UniProt Q8N568).
T3 sequence (whole entry): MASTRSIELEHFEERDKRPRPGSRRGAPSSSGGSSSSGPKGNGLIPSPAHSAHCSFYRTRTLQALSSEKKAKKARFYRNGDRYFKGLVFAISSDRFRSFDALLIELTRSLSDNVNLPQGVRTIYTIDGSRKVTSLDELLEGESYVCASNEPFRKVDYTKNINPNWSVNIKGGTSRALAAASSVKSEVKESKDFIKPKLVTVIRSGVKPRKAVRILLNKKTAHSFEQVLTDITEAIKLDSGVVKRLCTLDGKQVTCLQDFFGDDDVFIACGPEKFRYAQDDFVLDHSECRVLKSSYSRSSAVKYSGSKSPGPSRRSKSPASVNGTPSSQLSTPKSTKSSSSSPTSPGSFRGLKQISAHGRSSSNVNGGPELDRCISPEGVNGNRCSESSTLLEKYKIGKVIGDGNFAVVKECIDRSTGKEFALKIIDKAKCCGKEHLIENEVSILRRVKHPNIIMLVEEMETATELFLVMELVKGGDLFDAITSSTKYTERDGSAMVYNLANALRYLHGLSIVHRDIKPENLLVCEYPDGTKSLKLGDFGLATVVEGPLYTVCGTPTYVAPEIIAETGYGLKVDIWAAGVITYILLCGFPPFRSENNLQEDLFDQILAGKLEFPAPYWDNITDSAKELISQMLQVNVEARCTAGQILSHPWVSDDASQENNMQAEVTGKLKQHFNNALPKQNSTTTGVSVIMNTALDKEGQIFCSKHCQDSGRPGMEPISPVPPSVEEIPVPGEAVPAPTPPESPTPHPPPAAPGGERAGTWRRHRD
The experiment in a line: Selectivity interaction (KinomeScan (DiscoverX)) EUB0000607a DCLK2. The conditions noted are these: at 10 µM.

Gastrin/cholecystokinin type B receptor (Homo sapiens), sequence (P32239 whole entry): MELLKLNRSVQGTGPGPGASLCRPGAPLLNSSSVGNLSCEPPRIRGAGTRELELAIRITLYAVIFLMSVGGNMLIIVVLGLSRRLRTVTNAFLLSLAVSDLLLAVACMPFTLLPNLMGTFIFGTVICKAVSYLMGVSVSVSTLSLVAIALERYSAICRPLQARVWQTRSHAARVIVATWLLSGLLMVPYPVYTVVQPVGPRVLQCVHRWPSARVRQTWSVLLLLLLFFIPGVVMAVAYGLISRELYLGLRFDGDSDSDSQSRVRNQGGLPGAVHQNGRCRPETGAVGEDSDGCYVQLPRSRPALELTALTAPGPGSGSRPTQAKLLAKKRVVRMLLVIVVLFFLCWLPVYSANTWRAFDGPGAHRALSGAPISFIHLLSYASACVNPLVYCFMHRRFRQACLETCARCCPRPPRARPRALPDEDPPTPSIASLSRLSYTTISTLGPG
Serine/threonine-protein kinase pim-2, sequence (Q9P1W9 whole entry, looked up): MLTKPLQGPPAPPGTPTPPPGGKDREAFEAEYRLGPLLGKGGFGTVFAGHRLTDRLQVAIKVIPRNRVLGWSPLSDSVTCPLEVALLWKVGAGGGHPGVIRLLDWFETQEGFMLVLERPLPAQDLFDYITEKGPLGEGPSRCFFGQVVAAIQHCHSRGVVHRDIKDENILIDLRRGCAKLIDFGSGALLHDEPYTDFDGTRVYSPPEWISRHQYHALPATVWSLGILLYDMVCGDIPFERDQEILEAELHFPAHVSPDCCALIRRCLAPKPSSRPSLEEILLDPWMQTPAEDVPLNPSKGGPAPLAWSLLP

Take `C=CC(=O)Nc1cccc(C(=O)Nc2ccc(Nc3cc(-c4[nH]c(SC)nc4C)ccn3)cc2)c1`: the % of control in assay [1] (at 1 µM) worked out at 82%; in assay [1] (at 5 µM), 76%.

In turn, `CCc1cc(Nc2nccc(-c3c(-c4ccc(OC)c(C(=O)Nc5c(F)cccc5F)c4)nc4ccccn34)n2)c(OC)cc1N1CCC(N2CCN(S(C)(=O)=O)CC2)CC1` returned a % of inhibition in assay [2] of 35%.

Regarding `CCC(=O)N1CCN(c2ccc(-n3c(=O)ccc4cnc5ccc(-c6cnc7ccccc7c6)cc5c43)cc2C(F)(F)F)CC1`, the % of control in assay [3] and in assay [4] was 100% in each case.

In turn, `COc1cc(Nc2nc(C)cc(-c3cnn4nc(OC)ccc34)n2)cc(C(F)(F)F)c1` came in with a % of control in assay [5] of 95%.

The compound `CC(=O)c1cc(-c2ccccc2OCC2CC2)c2ncccn12` returned a % of control in assay [6] of 95%.

For the compound `CNC(=O)Nc1ccc(-c2nc(N3CC4CCC(C3)O4)c3cnn(C4CCC5(CC4)OCCO5)c3n2)cc1`, in assay [7], the % of control was 97%.
